Assay results as given in US20240108602A1, “TREATMENT OF MENTAL DISORDERS” (GH Research Ireland Limited, priority 2022, published 2024).

Tested on: patients with postpartum depression (PPD)
Assay: Clinical trial of inhaled 5-MeO-DMT (IDR) in patients with postpartum depression
Method: The single-arm, open-label clinical trial will involve 15 adult female patients with clinically diagnosed postpartum depression (PPD).
The second dose (12 mg) will only be administered if: • a. A peak experience (total score of ≥75) has not been achieved following the 6 mg dose, and • b. The 6 mg dose was safe and well-tolerated according to the investigator, • c. Any psychoactive effects (PsE) of the prior dose have subsided, and • d. Pre-dose vital parameters and forced expiratory volume in one second (FEV1) are in normal range, or if outside of the normal range, are not clinically significant according to the investigator. • 3. Similarly, a third dose (18 mg) will only be administered if: • a. A peak experience (total score of ≥75) has not been achieved following the 12 mg dose, and • b. The 12 mg dose was safe and well-tolerated according to the investigator, and • c. Any PsE of the prior dose have subsided, and • d. Pre-dose vital parameters and forced expiratory volume in one second (FEV1) are in normal range, or if outside of the normal range, are not clinically significant according to the investigator.
The patients will be assessed for a peak psychedelic experience (based on a patient-scored visual analogue scale, the PE scale), sedation, and other endpoints after dosing.
Follow-up visits are planned for Day 1, and Day 7 after the dosing day.
The following criteria must be met by all patients considered for clinical trial participation: • 1. Is female and in the age range between 18 and 45 years (inclusive) at screening. • 2. Has a body mass index (BMI) in the range of 18.5 and 35 kg/m^2 (inclusive) at screening. • 3. Meets the trial criteria for PPD as assessed by a trial psychiatrist or registered psychologist: • a. Diagnosis of Major Depressive Disorder without psychotic features, confirmed by the Mini-International Neuropsychiatric Interview (MINI), with peri-partum onset that began no earlier than gestation and no later than the first 4 weeks postpartum. • b. Has a Montgomery-Åsberg Depression Rating Scale (MADRS) total score of equal to or greater than 28 at screening and pre-dose on Day 0. • 6. […] Patients must have a negative pregnancy test at screening and on the pre-test day (Day−1). • 5. Is willing to delay start of other antidepressant or anxiety medication until after the end of the trial at Day 7 and agrees to keep any psychotherapy unchanged during the trial.

## COc1ccc2[nH]cc(CCN(C)C)c2c1 [5-MeO-DMT]
PPD patient 1, Day 7
  BIMF item 12 (taking good care of my baby's physical needs) score: 6
  BIMF item 12 Δ vs Day 0: 0
  BIMF item 13 (taking good care of my physical needs) score: 5
  BIMF item 13 Δ vs Day 0: 1
  BIMF item 14 (good decisions about my baby's health and well being) score: 6
  BIMF item 14 Δ vs Day 0: 0
  BIMF item 15 (My baby and I are getting into a routine) score: 6
  BIMF item 15 Δ vs Day 0: 1
  BIMF item 16 (I worry about how other people judge me) score: 5
  BIMF item 16 Δ vs Day 0: 2
  BIMF item 17 (able to take care of my baby and my other responsibilities) score: 5
  BIMF item 17 Δ vs Day 0: 0
  BIMF item 18 (Anxiety or worry often interferes with my mothering ability) score: 5
  BIMF item 18 Δ vs Day 0: 3
  BIMF item 19 (getting better at taking care of my baby) score: 1
  BIMF item 19 Δ vs Day 0: 1
  BIMF item 20 (satisfied with the job I am doing as a new mother) score: 5
  BIMF item 20 Δ vs Day 0: −1
  BPRS Anxiety improvement: 6
  BPRS Anxiety score: 1
  BPRS Blunted affect improvement: 0
  BPRS Blunted affect score: 1
  BPRS Conceptual disorganization improvement: 0
  BPRS Conceptual disorganization score: 1
  BPRS Depressive Mood improvement: 5
  BPRS Depressive Mood score: 1
  BPRS Disorientation improvement: 0
  BPRS Disorientation score: 1
  BPRS Emotional withdrawal improvement: 4
  BPRS Emotional withdrawal score: 1
  BPRS Excitement improvement: 1
  BPRS Excitement score: 1
  BPRS Grandiosity improvement: 0
  BPRS Grandiosity score: 1
  BPRS Guilt feelings improvement: 5
  BPRS Guilt feelings score: 1
  BPRS Hallucinatory behaviour improvement: 0
  BPRS Hallucinatory behaviour score: 1
  BPRS Hostility improvement: 0
  BPRS Hostility score: 1
  BPRS Mannerisms and Posturing improvement: 0
  BPRS Mannerisms and Posturing score: 1
  BPRS Motor retardation improvement: 0
  BPRS Motor retardation score: 1
  BPRS Somatic Concern improvement: 5
  BPRS Somatic Concern score: 1
  BPRS Suspiciousness improvement: 0
  BPRS Suspiciousness score: 1
  BPRS Tension improvement: 5
  BPRS Tension score: 1
  BPRS Uncooperativeness improvement: 0
  BPRS Uncooperativeness score: 1
  BPRS Unusual Thought Content improvement: 0
  BPRS Unusual Thought Content score: 1
  MADRS Apparent sadness improvement: 5
  MADRS Apparent sadness score: 0
  MADRS Concentration Difficulties improvement: 0
  MADRS Concentration Difficulties score: 0
  MADRS Inability to Feel improvement: 3
  MADRS Inability to Feel score: 0
  MADRS Inner Tension improvement: 4
  MADRS Inner Tension score: 1
  MADRS Lassitude improvement: 3
  MADRS Lassitude score: 0
  MADRS Pessimistic Thoughts improvement: 4
  MADRS Pessimistic Thoughts score: 0
  MADRS Reduced Sleep improvement: 5
  MADRS Reduced Sleep score: 0
  MADRS Reduced appetite improvement: 0
  MADRS Reduced appetite score: 0
  MADRS Reported sadness improvement: 4
  MADRS Reported sadness score: 0
  MADRS Suicidal Thoughts improvement: 0
  MADRS Suicidal Thoughts score: 0
  Total MADRS improvement: 28
  Total MADRS score: 1
PPD patient 1, Day 7, from 92 to 105
  BIMF total score improvement: 14%
PPD patient 1, Discharge
  BPRS Anxiety improvement: 6
  BPRS Anxiety score: 1
  BPRS Blunted affect improvement: 0
  BPRS Blunted affect score: 1
  BPRS Conceptual disorganization improvement: 0
  BPRS Conceptual disorganization score: 1
  BPRS Depressive Mood improvement: 5
  BPRS Depressive Mood score: 1
  BPRS Disorientation improvement: 0
  BPRS Disorientation score: 1
  BPRS Emotional withdrawal improvement: 4
  BPRS Emotional withdrawal score: 1
  BPRS Excitement improvement: 1
  BPRS Excitement score: 1
  BPRS Grandiosity improvement: 0
  BPRS Grandiosity score: 1
  BPRS Guilt feelings improvement: 5
  BPRS Guilt feelings score: 1
  BPRS Hallucinatory behaviour improvement: 0
  BPRS Hallucinatory behaviour score: 1
  BPRS Hostility improvement: 0
  BPRS Hostility score: 1
  BPRS Mannerisms and Posturing improvement: 0
  BPRS Mannerisms and Posturing score: 1
  BPRS Motor retardation improvement: 0
  BPRS Motor retardation score: 1
  BPRS Somatic Concern improvement: 5
  BPRS Somatic Concern score: 1
  BPRS Suspiciousness improvement: 0
  BPRS Suspiciousness score: 1
  BPRS Tension improvement: 5
  BPRS Tension score: 1
  BPRS Uncooperativeness improvement: 0
  BPRS Uncooperativeness score: 1
  BPRS Unusual Thought Content improvement: 0
  BPRS Unusual Thought Content score: 1
PPD patient 1, IDR 6 mg then 12 mg
  time to clinical remission after administration: ≤ 2 h
PPD patient 1, nominal dose 6 mg
  PES score (intensity of psychedelic experience): 17.3
PPD patient 1, shortly after administration
  changes in vital parameters: temporary, clinically non-relevant increase in heart rate and blood pressure
PPD patient 1, subsequent dose 12 mg
  PES score (intensity of psychedelic experience): 85.7
PPD patient 2
  ECG, safety laboratory analyses, CADSS: unremarkable
  MADRS response (at least 50% improvement) and MADRS remission (total score 10 or less): fulfilled standard criteria
  reported adverse events (mild, resolved spontaneously): vomiting on Day 0 and headache on Day 5
PPD patient 2, nominal dose 6 mg
  PES score (intensity of psychedelic experience): 1
PPD patient 2, shortly after administration
  changes in vital parameters: temporary, clinically non-relevant increase in heart rate
PPD patient 2, subsequent dose 12 mg
  PES score (intensity of psychedelic experience): 94.7
